Like-named read-outs stand apart in the source and are kept apart here.
Key:
[1] = system: empty vector-transformed leaf discs; experiment: PSII yield inhibition (chlorophyll fluorescence, imaging PAM) in empty vector-transformed tobacco leaf discs; type: cell-based; details: Nicotiana benthamiana, read-out: IC50 of PSII yield inhibition
[2] = system: mutated PPO sequences (e.g. SEQ ID NOs: 1, 30, 31, 11, 37, and 117) as wildtype or with respective mutations, expressed in leaf discs; experiment: Herbicide tolerance of transiently transformed tobacco leaf discs expressing wildtype or mutated PPO: tolerance factors from IC50 of PSII yield inhibition versus empty vector; type: cell-based, Nicotiana benthamiana; details: 48 h herbicide treatment

CC(C)N(C)S(=O)(=O)NC(=O)c1cc(-n2c(=O)cc(C(F)(F)F)n(C)c2=O)c(F)cc1Cl [Saflufenacil, saflufenacil]
IC50 ([1]; 48 h): 110 nM

C#CCN1C(=O)C(F)(F)Oc2cc(F)c(-n3c(=O)n(C)c(=S)n(C)c3=O)cc21 [1,5-dimethyl-6-thioxo-3-(2,2,7-trifluoro-3-oxo-4-(prop-2-ynyl)-3,4-dihydro-2H-benzo[b][1,4]oxazin-6-yl)-1,3,5-triazinane-2,4-dione]
Tolerance factor (IC50 of PSII yield inhibition, transformed versus empty vector-transformed leaf discs) ([2]; Bn_PPO2_A_L371E_F394M, Brassica napus, SEQ ID 117): 10 | Tolerance factor (IC50 of PSII yield inhibition, transformed versus empty vector-transformed leaf discs) ([2]; Bn_PPO2_A_L371E_F394V, Brassica napus, SEQ ID 117): 13 | Tolerance factor (IC50 of PSII yield inhibition, transformed versus empty vector-transformed leaf discs) ([2]; Bn_PPO2_A_L371Q_F394M, Brassica napus, SEQ ID 117): 10 | Tolerance factor (IC50 of PSII yield inhibition, transformed versus empty vector-transformed leaf discs) ([2]; Bn_PPO2_A_L371Q_F394V, Brassica napus, SEQ ID 117): 14 | Tolerance factor (IC50 of PSII yield inhibition, transformed versus empty vector-transformed leaf discs) ([2]; Bn_PPO2_A_R99A_F394V, Brassica napus, SEQ ID 117): 1 | Tolerance factor (IC50 of PSII yield inhibition, transformed versus empty vector-transformed leaf discs) ([2]; Bn_PPO2_A_wt, Brassica napus, SEQ ID 117): 1 | Tolerance factor (IC50 of PSII yield inhibition, transformed versus empty vector-transformed leaf discs) ([2]; Gm_PPO2_L367E_F390M, Glycine max, SEQ ID 11): 50 | Tolerance factor (IC50 of PSII yield inhibition, transformed versus empty vector-transformed leaf discs) ([2]; Gm_PPO2_L367E_F390V, Glycine max, SEQ ID 11): 15 | Tolerance factor (IC50 of PSII yield inhibition, transformed versus empty vector-transformed leaf discs) ([2]; Gm_PPO2_L367Q_F390M, Glycine max, SEQ ID 11): 14 | Tolerance factor (IC50 of PSII yield inhibition, transformed versus empty vector-transformed leaf discs) ([2]; Gm_PPO2_L367Q_F390V, Glycine max, SEQ ID 11): 26 | Tolerance factor (IC50 of PSII yield inhibition, transformed versus empty vector-transformed leaf discs) ([2]; Gm_PPO2_R98A_F390V, Glycine max, SEQ ID 11): 14 | Tolerance factor (IC50 of PSII yield inhibition, transformed versus empty vector-transformed leaf discs) ([2]; Gm_PPO2_wt, Glycine max, SEQ ID 11): 1 | Tolerance factor (IC50 of PSII yield inhibition, transformed versus empty vector-transformed leaf discs) ([2]; Os_PPO2_L374E_F397M, Oryza sativa, SEQ ID 37): 2454 | Tolerance factor (IC50 of PSII yield inhibition, transformed versus empty vector-transformed leaf discs) ([2]; Os_PPO2_L374E_F397V, Oryza sativa, SEQ ID 37): 43 | Tolerance factor (IC50 of PSII yield inhibition, transformed versus empty vector-transformed leaf discs) ([2]; Os_PPO2_L374Q_F397M, Oryza sativa, SEQ ID 37): 14 | Tolerance factor (IC50 of PSII yield inhibition, transformed versus empty vector-transformed leaf discs) ([2]; Zm_PPO2_L410E_F433M, Zea mays, SEQ ID 30, 31): 8766 | Tolerance factor (IC50 of PSII yield inhibition, transformed versus empty vector-transformed leaf discs) ([2]; Zm_PPO2_L410Q_F433M, Zea mays, SEQ ID 30, 31): 385 | Tolerance factor (IC50 of PSII yield inhibition, transformed versus empty vector-transformed leaf discs) ([2]; Zm_PPO2_L410Q_F433V, Zea mays, SEQ ID 30, 31): 15 | Tolerance factor (IC50 of PSII yield inhibition, transformed versus empty vector-transformed leaf discs) ([2]; Zm_PPO2_R130A_F433V, Zea mays, SEQ ID 30, 31): 8766 | IC50 ([1]; empty vector-transformed leaf discs, treated for 48 h): 11 nM
